According to paper PMC4542541, “Flexibility and extracellular opening determine the interaction between ligands and insect sulfakinin receptors” (Scientific Reports, 2015):
Entries after “also recorded” stand apart in the source; their conditions may differ.

How the values were obtained:
[1] = tested on: TcSKR2; assay: Receptor activation bioassay, CRE-luciferase reporter in Sf9-TcSKR2 cells; format: cell-based, Tribolium castaneum; design: key to peptide marked active on TcSKR2: *: A peptide is active on the sulfakinin receptor (SKR); details: for activity on TcSKR2 in words: compared to parental peptide nsSK, Sf9 cell-based reporter; for relative activity (% nsSK) TcSKR2: peptide 10 μM, Sf9-TcSKR2 cells transiently transfected with pGL4.29[luc2P/CRE/Hygro], 5 h at 27 °C, Bright-Glo luminescence, activity related to nsSK, mean ± SEM, at least two biological replicates, SEM; for peptide marked active on TcSKR2: 10 μM, one-way ANOVA with Dunnett's posttest vs nsSK and medium control
Experimental: (§1) Sf9 cells (Spodoptera frugiperda) and Sf9-TcSKR1 and Sf9-TcSKR2 cells generated previously[21] were routinely cultured in SF-900™ II SFM medium (Life Technologies, Merelbeke, Belgium) at 27 °C in darkness. The medium for Sf9-TcSKR1 and Sf9-TcSKR2 was supplemented with 20 μg/ml of puromycin (Life Technologies, Merelbeke, Belgium) to maintain the stable expression of TcSKRs.
(§2) The reporter vector pGL4.29[luc2P/CRE/Hygro] (CRE; Promega, Leiden, the Netherlands) was applied here and it has a cAMP (cyclic adenosine 3′, 5′-cyclic monophosphate) response element upstream the reporter gene luciferase, through which the cAMP signaling regulates the transcription of luciferase proportionally. Thus, the readout of the luminescence corresponds to the extent to which the expressed TcSKR is activated in Sf9 cells. The SK-related peptides (Table 1) were tested at concentrations of 0.1, 1 and 10 μM.
(§3) Sf9, Sf9-TcSKR1 and Sf9-TcSKR2 cells were all transiently transfected with pGL4.29[luc2P/CRE/Hygro] using ESCORT™ IV transfection reagent (Sigma-Aldrich, Bornem, Belgium) following the manufacturer’s instruction. Medium was supplemented with 200 μg/ml hygromycin (Life Technologies, Merelbeke, Belgium) 24 h post-transfection. The transient cells (Sf9-CRE, Sf9-TcSKR1-CRE, Sf9-TcSKR2-CRE) were seeded at 20,000 cells per well in white 96-well plates (Greiner Bio-One, Frickenhausen, Germany). After 12 h, cells had attached to the well bottom and the medium was replaced by fresh medium containing peptide of designated concentrations. Each concentration was tested in three replicates and the entire assay was repeated at least twice. Two kinds of negative control were included. […] Second, Sf9-CRE cells were used as a negative control to eliminate the potential internal factors that were activated by peptide samples. Cells were incubated with a peptide for 5 h at 27 °C and then Bright-Glo™ luciferase assay (Promega, Leiden, the Netherlands) was carried out according to the manufacturer’s instruction. Light emission, resulting from the luciferase activity was measured for 10 seconds per well using an Infinite® 200 PRO microplate reader (Tecan, Mechelen, Belgium).
(§4) In the receptor activation bioassay, the activity of a peptide on TcSKR was represented by the increased luminescence units, calculated with the following formula: activitypeptide = (luminescencepeptide – luminescencemedium)/luminescencemedium × 100. The activity of SK-related peptide was compared to that of nsSK and medium control by one-way analysis of variance with the Dunnett’s posttest in GraphPad Prism version 5.00 (GraphPad Software, La Jolla, CA). The activity of a SK-related peptide was also related to the activity of nsSK as a percentage value, calculated with the formula: relative activity of peptide (% nsSK) = activitypeptide/activitynsSK × 100.

[2] = tested on: TcSKR1; assay: Receptor activation bioassay, CRE-luciferase reporter in Sf9-TcSKR1 cells; format: cell-based, Tribolium castaneum; design: key to peptide marked active on TcSKR1: *: A peptide is active on the sulfakinin receptor (SKR); details: for activity on TcSKR1 in words: compared to parental peptide nsSK, Sf9 cell-based reporter; for relative activity (% nsSK) TcSKR1: peptide 10 μM, Sf9-TcSKR1 cells transiently transfected with pGL4.29[luc2P/CRE/Hygro], 5 h at 27 °C, Bright-Glo luminescence, activity related to nsSK, mean ± SEM, at least two biological replicates, SEM; for peptide marked active on TcSKR1: 10 μM, one-way ANOVA with Dunnett's posttest vs nsSK and medium control
Experimental: as §1, §2, §3, §4

[3] = tested on: TcSKR2; details: previous experiments; cited from earlier work
Text: As a satiety factor, insect SK signaling provides insights into the development of new pest control strategies. […] This lead to a hypothesis that sSK and nsSK interact with the two TcSKRs differently. Therefore, understanding the interaction of ligand and receptor will promote the ...

Substance | activity on TcSKR2 in words [1] | relative activity (% nsSK) TcSKR2 [1] [% nsSK] | activity on TcSKR1 in words [2] | relative activity (% nsSK) TcSKR1 [2] [% nsSK] | peptide marked active on TcSKR2 [1] | peptide marked active on TcSKR1 [2] | potency of sSK relative to nsSK to activate TcSKR2 [3]
FDDAGHMRF-NH2 [Peptide 2008, alanine-substituted nsSK, …-NH2] | inactive | 21.5 ± 10.7 | inactive | 5.3 ± 1.5 |  |  | 
FDDYGHMAF-NH2 [Peptide 2004, alanine-substituted nsSK, …-NH2] | inactive | 18.7 ± 10.2 | inactive | 58.0 ± 22.0 |  |  | 
DDYGHMRF-NH2 [Peptide 2009, truncated nsSK, DDYGHMRF-NH2] |  | 1.2 ± 13.7 |  | 7.8 ± 11.8 |  |  | 
DDY(SO3H)GHMRF-NH2 [Peptide 1658, sulfated SK-related peptide DDY(SO3H)GHMRF-NH2] | much more active than nsSK; also recorded: retention of activity | 516.8 ± 50.6 | retention of activity | 64.8 ± 8.4 | * | * | 
YGHMRF-NH2 [Peptide 2011, truncated nsSK, YGHMRF-NH2] |  | 11.7 ± 13.5 |  | 2.8 ± 2.5 |  |  | 
FDDYGHMRA-NH2 [Peptide 2003, alanine-substituted nsSK, …-NH2] | inactive | −3.5 ± 5.9 | inactive | −2.0 ± 3.4 |  |  | 
DYGHMRF-NH2 [Peptide 2010, truncated nsSK, DYGHMRF-NH2] |  | 8.6 ± 9.1 |  | 28.1 ± 15.6 |  |  | 
FDDYGHMRF-NH2 [nsSK, nonsulfated sulfakinin peptide …-NH2, parental peptide of the series, reference compound] |  | 100.0 ± 0.0 |  | 100.0 ± 0.0 | * | * | 
HMRF-NH2 [Peptide 2052, truncated nsSK, HMRF-NH2] |  | 1.8 ± 0.1 |  | 6.8 ± 0.2 |  |  | 
EADY(SO3H)GHNleRF-NH2 [Peptide 1591-1, sulfated SK-related peptide EADY(SO3H)GHNleRF-NH2] | much more active than nsSK; also recorded: retention of activity | 113.7 ± 60.5 | retention of activity | 82.6 ± 2.0 | * | * | 
GHMRF-NH2 [Peptide 2053, truncated nsSK, GHMRF-NH2] |  | −4.8 ± 0.1 |  | 0.6 ± 0.1 |  |  | 
FDDYGHARF-NH2 [Peptide 2005, alanine-substituted nsSK, …-NH2] | inactive | 11.9 ± 2.7 | inactive | −0.8 ± 4.4 |  |  | 
FDDY(SO3H)GHMRF-NH2 [sSK, sulfated sulfakinin peptide FDDY(SO3H)GHMRF-NH2] |  |  |  |  |  |  | 1,000–10,000 times
SDDY(SO3H)GHMRF-NH2 [Peptide 1835, sulfated SK-related peptide SDDY(SO3H)GHMRF-NH2] | much more active than nsSK; also recorded: retention of activity | 645.7 ± 126.6 | retention of activity | 76.5 ± 7.6 | * | * | 
FDDYGAMRF-NH2 [Peptide 2006, alanine-substituted nsSK, …-NH2] | inactive | 4.0 ± 9.9 | inactive | 0.5 ± 0.7 |  |  | 
FDDYAHMRF-NH2 [Peptide 2007, alanine-substituted nsSK, …-NH2] |  | 8.5 ± 5.3 | kept the activity on TcSKR1 to some extent | 55.0 ± 7.1 |  |  | 
